We go through two compounds from US10457709B2, “Antimicrobial peptides, their variants and uses” (priority 2015, dated 2019).

Experiment [1] relates to MRSA strains (S. aureus COL). In words: MIC, synergistic activity with Ertapenem (4 μg/ml). Format: cell-based, Staphylococcus aureus. The settings on record: Ertapenem 4 μg/ml; D-form peptide. The protocol: Minimum inhibition concentrations (MICs) were determined against Escherichia coli (ATCC 25922), Staphylococcus aureus (ATCC 25923), Klebsiella pneumoniae (ATCC 10031) and Pseudomonas aeruginosa (ATCC 27853). Also clinical strains of E. coli, K. pneumoniae, E. cloacae, P. aeruginosa, Serratia marcescens, Proteus mirabilis, S. pneumoniae, Acinetobacter baumannii, A. johnsonii and S. aureus were used for MICs assays. Additionally, clinical strains of yeast including Candida albicans, C. glabrata, C. parapsilosis and C. quillermondiae were used. The susceptibility of these microorganisms to Chain peptides were determined using micro broth dilution assay. Colonies of the respective microorganism from Muller Hinton (MH) agar plates incubated overnight were suspended in MH broth media and final concentration of microorganism was adjusted to 5.0×10^5 cfu/ml. An aliquot of 10 μl of each Chain peptide, or gentamicin, tetracycline as reference antibiotics were added in differing concentrations along with 90 μl of bacterial suspension to 96 well polypropylene plates and incubated at 37° C. for 20 to 24 hours. Concentrations of Chain peptides and reference antibiotics ranged from 0.125 to 128 μg/ml and the MICs were recorded as the lowest concentration with no visual growth of bacteria. Similarly, antifungal MICs were tested in Potato dextrose broth.
Peptides Chain 104, Chain 105, Chain 201, Chain 308, Chain 310 were tested against antibiotic-sensitive strains of S. aureus RN4220 and methicillin resistant strains of S. aureus COL (MRSA). Chain peptides comprising of either L- or D-form amino acids were tested against these bacteria, and the D-form peptides were found have better activity compared to L-form (Table 6). Synergistic activity of chain peptides along with Ertapenem (4 μg/ml) was tested to know whether it will influence the activity against MRSA strains. […] Chain 310 has the best antibacterial activity against the MRSA strains with a MIC of 0.06 & 0.03 μg/ml along with Ertapenem (4 μg/ml) for both forms of L and D-peptides (Table 6).

Experiment [2] has as its system Escherichia coli (ATCC 25922). Format: cell-based. The settings on record: Peptides 50 μg, Gentamycin 5 μg, diameter including the wells. The protocol: (§1) The radial diffusion assay (RDA) was carried out as described by Andersen et al. (2010). Briefly, 30 ml of 1/10 Muller-Hinton broth (MHB) supplemented with 1% agarose and 5.0×10^5 CFU/ml S. aureus or E. coli or K. pneumoniae, P. aeruginosa cells was poured into a single-well omnitray (Nunc) and overlaid with a TSP 96-well plate. […] The peptides were also tested against Fusarium oxysporum and Verticillium dahliae, for which ⅓ potato dextrose agarose was used. To test the synergistic effect of peptides, each peptide was mixed in equimolar concentrations. Mix1 (met1-12), Mix2 (met3, 4 and 5), Mix3 (met8, 9 and 10), Mix4 (met11, 12) and Mix5 (8, 9, 10, 11, 12) were prepared and tested against E. coli and S. aureus. Gentamicin and vancomycin were included as positive controls for bacteria and amphotericin B was used as the control for fungi.
(§2) By using rational design techniques, we have designed variants of peptides by incorporating or replacing various amino acids in the original peptides. Thus, we have designed and modified Chain 100, Chain 200 and Chain 300 with tryptophan (W), arginine (R) and lysine (K) at various positions to improve antimicrobial activity (FIGS. 4a-c and 5a-c). In some peptides we have also used other amino acids such as Leucine (L), Cysteine (C), Isoleucine (I), Phenylalanine (F) and Alanine (A). For synthesis, 32 variants and 3 original peptides were selected based on the various parameters such as positive charge, aliphatic index and instability index. Peptides variants were tested by using radial diffusion assay against Escherichia coli (ATCC 25922), Staphylococcus aureus (ATCC 25923), Klebsiella pneumoniae (ATCC 10031) and Pseudomonas aeruginosa (ATCC 27853) (FIGS. 6a-c). The zone of inhibition ranged between 10-18 mm for Escherichia coli and Staphylococcus aureus, 6-18 mm & 8-18 mm for Pseudomonas aeruginosa and Klebsiella pneumonia respectively (Table 2). For Gentamicin it was between 22-24 mm. Antifungal activity was tested for promising antibacterial peptides (Chains 104, 105, 109, 201, 204, 306, 307, 308, 310) against Aspergillus flavus (DSM 1959) and Penicillium chrysogenum (DSM 1075). All these peptides has activity at a concentration of 20 μg, Amphotericin B was used as a positive control at 20 μg (FIG. 7).

For experiment [3], the system named is Pseudomonas aeruginosa (ATCC 27853). Format: cell-based. Particulars: Peptides 50 μg, Gentamycin 5 μg, diameter including the wells. The protocol: as §1, §2
Experiment [4] has as its system Staphylococcus aureus (ATCC 25923). Format: cell-based. The settings on record: Peptides 50 μg, Gentamycin 5 μg, diameter including the wells. The protocol:
as §1, §2

The subject of experiment [5] is Klebsiella pneumoniae (ATCC 10031). Format: cell-based. The settings on record: Peptides 50 μg, Gentamycin 5 μg, diameter including the wells. The protocol:
as §1, §2

The test system of experiment [6] is Escherichia coli (ATCC 25922). In words: microbe, parasite or virus in culture. Format: cell-based. The gist of the method: (§3)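 Susceptibility is determined by micro broth dilution with a bacterial inoculum of 5.0×10^5 cfu/ml in Mueller-Hinton broth. The endpoint is absence of visible growth following 20–24 h incubation at 37° C.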
Experiment [7] concerns Pseudomonas aeruginosa (ATCC 27853). Briefly: microbe, parasite or virus in culture. Format: cell-based. The method, boiled down: as §3
The test system of experiment [8] is Staphylococcus aureus (ATCC 25923). In words: microbe, parasite or virus in culture. Format: cell-based. The gist of the method:
as §3

In experiment [9] the test system is Klebsiella pneumoniae (ATCC 10031). In words: microbe, parasite or virus in culture. Format: cell-based. The method, boiled down: as §3

Read-outs that look alike come from different tables or passages of the source. Square brackets hold non-standard residues; d marks the D form. Peptide text beside a SMILES is read from it.

`CC(C)C[C@@H](NC(=O)[C@@H](CCCCN)NC(=O)[C@@H](CCCCN)NC(=O)[C@@H](Cc1ccccc1)NC(=O)[C@@H](CC(C)C)NC(=O)[C@@H](Cc1c[nH]c2ccccc12)NC(=O)[C@@H](CCCNC(=N)N)NC(=O)[C@@H](Cc1c[nH]c2ccccc12)NC(=O)[C@@H](CCCCN)NC(=O)[C@@H](CCCNC(=N)N)NC(=O)[C@H](N)CCCCN)C(=O)O` [Chain310D] (H-[dK][dR][dK][dW][dR][dW][dL][dF][dK][dK][dL]-OH): the “MIC against MRSA strains along with Ertapenem” value in experiment [1] came out at 0.03 µg/mL.
Turning to Gentamicin [reference compound], the “Inhibition zone, Escherichia coli” value is 22-24 mm in experiment [2] and 22 mm in experiment [2] (listed as Gentamycin). Moreover, the “Inhibition zone, Pseudomonas aeruginosa” value in experiment [3] is given as 22-24 mm; in experiment [3] (listed as Gentamycin), 24 mm. Moreover, the “Inhibition zone, Staphylococcus aureus” value is 22-24 mm in [4] and 24 mm in [4] (listed as Gentamycin). Further, the entries for the “Inhibition zone, Klebsiella pneumoniae” value in [5] and in experiment [5] (listed as Gentamycin) were 22-24 mm and 22 mm, respectively. For the same compound, the “Minimum inhibitory concentration, Escherichia coli (ATCC 25922)” value in experiment [6] amounted to 1 µg/mL. The “Minimum inhibitory concentration, Pseudomonas aeruginosa (ATCC 27853)” value in [7] turned out to be 0.25 µg/mL. Moreover, the “Minimum inhibitory concentration, Staphylococcus aureus (ATCC 25923)” value in [8] is 0.25 µg/mL. Also, the “Minimum inhibitory concentration, Klebsiella pneumoniae (ATCC 10031)” value in experiment [9] stood at 0.25 µg/mL.
